Assay results reported in ChEMBL document CHEMBL1938230, “6-Position optimization of tricyclic 4-quinolone-based inhibitors of glycogen synthase kinase-3β: discovery of nitrile derivatives with picomolar potency” (Bioorg Med Chem Lett, 2012).
≈ marks a conversion by molar mass, not a printed value.

Experiments:
Escherichia coli = experiment: Antibacterial activity against Escherichia coli ATCC 8739; type: ADME, organism-based
Staphylococcus aureus = experiment: Antibacterial activity against Staphylococcus aureus Smith; type: ADME, organism-based
[1] = molecular target: Glycogen synthase kinase-3 beta (Homo sapiens, UniProt P49841); experiment: Inhibition of GSK3-beta
Glycogen synthase kinase-3 beta, sequence (P49841 whole entry): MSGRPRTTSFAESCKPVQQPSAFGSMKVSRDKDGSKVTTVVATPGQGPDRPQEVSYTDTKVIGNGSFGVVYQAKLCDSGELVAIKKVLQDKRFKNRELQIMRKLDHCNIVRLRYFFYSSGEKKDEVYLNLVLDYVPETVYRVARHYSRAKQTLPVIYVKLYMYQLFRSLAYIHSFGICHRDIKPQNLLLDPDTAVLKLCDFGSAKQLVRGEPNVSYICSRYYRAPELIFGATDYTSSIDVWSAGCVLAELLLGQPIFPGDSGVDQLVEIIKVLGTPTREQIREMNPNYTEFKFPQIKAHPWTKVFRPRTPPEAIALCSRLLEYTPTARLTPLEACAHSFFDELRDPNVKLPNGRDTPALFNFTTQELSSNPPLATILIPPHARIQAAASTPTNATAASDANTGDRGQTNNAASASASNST

MIC (Escherichia coli) [µM]	MIC (Staphylococcus aureus) [µM]	IC50 [1] [nM]	Compound
4 (≈ 1.65 µg/mL)	2 (≈ 0.827 µg/mL)	–	C[C@H]1COc2c(NCCNc3ccccn3)c(F)c(N)c3c(=O)c(C(=O)O)cn1c23
–	–	1.4	C[C@H]1COc2c(NCCCc3ccccc3)c(F)c(N)c3c(=O)c(C#N)cn1c23
> 257	> 257	20	C[C@H]1COc2c(NCCCn3ccnc3)c(F)c(N)c3c(=O)c(-c4nnn[nH]4)cn1c23
–	–	0.57	C[C@H]1COc2c(NCCNc3ccccn3)c(F)c(N)c3c(=O)c(C#N)cn1c23
> 306	> 306	1	C[C@H]1COc2c(NCCCn3ccnc3)c(F)c(N)c3c(=O)c(C#N)cn1c23
> 249	> 249	180	C[C@H]1COc2c(NCCCn3ccnc3)c(F)c(N)c3c(=O)c(C(N)=O)cn1c23
> 274	69 (≈ 30.1 µg/mL)	2.4	C[C@H]1COc2c(NCCCc3ccccn3)c(F)c(N)c3c(=O)c(-c4nnn[nH]4)cn1c23
16 (≈ 6.42 µg/mL)	8 (≈ 3.21 µg/mL)	150	C[C@H]1COc2c(NCCCn3ccnc3)c(F)c(N)c3c(=O)c(C(=O)O)cn1c23
–	–	140	C[C@H]1COc2c(NCCCn3ccnc3)c(F)c(N)c3c(=O)c(C(=N)NO)cn1c23
> 39	2 (≈ 0.823 µg/mL)	40	C[C@H]1COc2c(NCCCc3ccccc3)c(F)c(N)c3c(=O)c(C(=O)O)cn1c23
> 78	78 (≈ 32 µg/mL)	67	C[C@H]1COc2c(NCCCc3ccccc3)c(F)c(N)c3c(=O)c(C(N)=O)cn1c23
–	–	71	C[C@H]1COc2c(NCCCc3ccccn3)c(F)c(N)c3c(=O)c(C(=N)NO)cn1c23
> 285	> 285	33	C[C@H]1COc2c(NCCNc3ccccn3)c(F)c(N)c3c(=O)c(C(N)=O)cn1c23
